Data taken from US6482819B1, “2,3-benzodiazepine derivatives” (Gyogyszerkutato Intezet Kft., priority 1997, dated 2002).

Key:
[1] = tested on: electroshock convulsions in mice; test: Anticonvulsive effect, electroshock test; assay type: in vivo; conditions: Mus musculus, po, 60 minutes pretreatment
Description: (§1) In Table I the anticonvulsive effect of some compounds of the invention in the electroshock test is presented [J. Pharmacol. Exp. Ther. 106, 319 (1952)]. The anticonvulsive effect was also studied in convulsions induced by various chemical agents, e. g. pentetrazole [J. Pharmacol. Exp. Ther 108, 168 (1953)], strychnine [J. Pharmacol. Exp. Ther. 129, 75 (1960)], bemegride, nicotine, bicuculline, 4-aminopyridine and 3-mercaptopropionic acid. The pretreatment period was 60 minutes. The test compounds were administered orally in 3 doses to 10 male CD 1 mice in each dose group.

[2] = tested on: nicotine induced convulsions in mice; test: Anticonvulsive effect, nicotine induced convulsions; assay type: in vivo; conditions: Mus musculus, po, 60 minutes pretreatment
Description: as §1

[3] = tested on: AMPA receptors (AMPA induced current, Purkinje cells); test: Inhibition of AMPA induced whole cell currents on Purkinje cells of the cerebellum; assay type: cell-based
Description: (§2) Inhibition of AMPA and Kainate Induced Transmembrane Currents
(§3) The effect of the compound of Example 17 on whole cell currents induced by 100 μM kainate or 5 μM AMPA, resp., was studied on Purkinje cells of the cerebellum according to the method of Bleakman et al. [Neuropharmacology 12, 1689 (1996)]. […] In this preparation kainate was also exerting its effect through the activation of AMPA receptors.

[4] = tested on: AMPA receptors (kainate induced current, Purkinje cells); test: Inhibition of kainate induced whole cell currents on Purkinje cells of the cerebellum; assay type: cell-based; conditions: 100 μM kainate, read-out: IC50 against kainate, whole cell currents
Description: as §2, §3

[5] = tested on: AMPA (5 μM) induced spreading depression, isolated chicken retina; test: Inhibition of AMPA induced spreading depression in the isolated chicken retina preparation; assay type: cell-based; conditions: Gallus gallus
Excerpt: (§4) In the first model the “spreading depression” inducing effect of glutamate agonists was studied, while in the second model the transmembrane ion current induced by the activation of glutamate receptors was directly measured.
(§5) Inhibition of AMPA and Kainate Induced “Spreading depression” in the Isolated Chicken Retina Preparation
(§6) The kainate and AMPA antagonizing effect was studied in vitro in the retinal “spreading depression” model [M. J. Sheardown: Brain Res. 607, 189 (1993)]. The AMPA/kainate antagonists extend the latency of the kainate (5 μM) or AMPA (5 μM) induced development of “spreading depression”.

CD 1 mice [6] = test: Muscle relaxant activity, rotarod test; assay type: in vivo; conditions: Mus musculus, ip
Description: (§7) The muscle relaxant activity of the compounds of general formula (I) was measured in the “inclined screen” test of Randall [J. Pharmacol. Exp. Ther. 129, 163 (1960)] and in the rotarod test [J. Am. Pharm. Assoc. 46, 208 (1975)]. The compounds were administered in 3 i. p. doses to ten CD 1 mice in each dose group.

[7] = tested on: bicuculline induced convulsions in mice; test: Anticonvulsive effect, bicuculline induced convulsions; assay type: in vivo; conditions: Mus musculus, po, 60 minutes pretreatment
Description: as §1

CD 1 mice [8] = test: Muscle relaxant activity, inclined screen test; assay type: in vivo; conditions: Mus musculus, ip
Description: as §7

[9] = tested on: kainate (5 μM) induced spreading depression, isolated chicken retina; test: Inhibition of kainate induced spreading depression in the isolated chicken retina preparation; assay type: cell-based; conditions: Gallus gallus
Excerpt: as §4, §5, §6

[10] = tested on: anesthesized rats, middle cerebral artery occlusion; test: Inhibition of focal ischemia, middle cerebral artery occlusion (MCAO) test; assay type: in vivo; conditions: for Infarcted area in percent of cerebral hemosphere / Score of infarcted area (size of infarcted area) / Change % of size of infarcted area: MCAO; for Change % of size of infarcted area: versus vehicle
Description: The focal ischemia inhibiting effect of the compound of Example 17 was studied on the “middle cerebral artery occlusion” (MCAO) test in anesthesized rats. […] After histological processing the developed infarcted area was measured by a computerized scanner program [R. T. Bartus: Stroke 11, 2265 (1994) and S. G. Sydserff: Brit. J. Pharmacol. 114, 1631 (1995)].

[11] = tested on: pentetrazole induced convulsions in mice; test: Anticonvulsive effect, pentetrazole induced convulsions; assay type: in vivo; conditions: Mus musculus, po, 60 minutes pretreatment
Description: as §1

[12] = tested on: bemegride induced convulsions in mice; test: Anticonvulsive effect, bemegride induced convulsions; assay type: in vivo; conditions: Mus musculus, po, 60 minutes pretreatment
Description: as §1

Row | Structure (SMILES) | ED50 [1] | ED50 [2] | IC50 ([3]; Purkinje cells of the cerebellum, 5 μM AMPA, read-out: IC50 against AMPA, whole cell currents) | Inhibition of ion current induced by AMPA receptor activation relative to GYKI 52466 ([3]; Purkinje cells, compared by IC50 values) | melting point | IC50 [4] | IC50 [5] | ED50 (CD 1 mice [6]) | ED50 [7] | ED50 (CD 1 mice [8]) | IC50 [9] | Rate of cerebral cell damage induced by occlusion of the middle cerebral artery ([10]; 6×1 mg/kg i.v.) | Infarcted area in percent of cerebral hemosphere ([10]; 6 × 1 mg/kg i.v.) | Score of infarcted area (size of infarcted area) ([10]; 6 × 1 mg/kg i.v.) | Change % of size of infarcted area ([10]; 6 × 1 mg/kg i.v.) | Infarcted area in percent of cerebral hemosphere ([10]; 6 × 2 mg/kg i.v.) | Score of infarcted area (size of infarcted area) ([10]; 6 × 2 mg/kg i.v.) | Change % of size of infarcted area ([10]; 6 × 2 mg/kg i.v.) | ED50 [11] | ED50 [12]
1 | Cc1cn2c(n1)Cc1ccc(Cl)cc1C(c1ccc(N)cc1)=N2 [Example 17] | 24 mg/kg | 13 mg/kg | 2.02 µM | twice as strongly inhibited | 229 to 230 °C | 4.97 µM | 7.3 µM | 16 mg/kg | 23 mg/kg | 36 mg/kg | 2.5 µM | significantly reduced | 13.4 ± 3.64% | 16122 ± 4368 | −60.2% | 11.0 ± 1.93% | 13229 ± 2313 | −67.4% | – | –
2 | O=C1NC(=O)C(c2ccccc2)(c2ccccc2)N1 [Phenytoin, reference compound] | 10 mg/kg | 12 mg/kg | – | – | – | – | – | – | – | – | – | – | – | – | – | – | – | – | > 400 mg/kg | > 200 mg/kg
3 | NCC(CC(=O)O)c1ccc(Cl)cc1 (stereo not drawn) [Baclofen, reference compound] | – | – | – | – | – | – | – | 13 mg/kg | – | 26 mg/kg | – | – | – | – | – | – | – | – | – | –
